Measurements taken from US20100204295A1, “TREATMENT OF ALLERGIC DISEASE WITH IMMUNOMODULATOR COMPOUNDS” (SCICLONE PHARMACEUTICALS, INC., priority 2007, published 2010).

How the values were obtained:
[1] = system: immunization with sheep red blood cells; settings: in vivo; cited from earlier work
[2] = in vivo; cited from earlier work
bronchial asthma = type: in vivo
From the text: Patient B-skii, reported with complaints of dyspnea attacks 6-7 times a day, cough with phlegm that was difficult to discharge, shortness of breath, and nasal obstruction. It is known from the history that, since 1985, they have suffered bronchial asthma, has been hospitalized several times by emergency medical services in the Allergological Department in conjunction with exacerbation of the disease. Since 1997, they have been taking systemic glucocorticoids (Prednisolone 2 tablets/day—maintenance dose). They are also receiving Beklazom LD 250 (up to 1000 μg/day), Flixotide 250 (to 1000 μg/day), prolonged broncholytics (Serevent 25 μg/unit 50 μg/s), Teotard 200 (2 k/day, 400 mg/day). The attacks are treated with salbutamol (Ventolin).
The patient was prescribed the treatment: • 1. Ventolin through a nebulizer during dyspnea attacks—for 2 days, then Astalin (DAI) during dyspnea no more than 3-4 times a day; • 2. Intravenous drip: • 1. Prednisolone 90 nu-60 nu-30 nu in 200.0 mL physiological saline; • 2. Euphylline 2.4%-10.0-5.0 mL. • 3. Heparin 5000 units. • 4. Benacort 200 (800 μg/day). • 5. Prednisolone 4 t/day (8:00, 12:00) • 6. Lazolvan through a nebulizer, then Ambrohexyl 1 t/3 times a day.
During attenuation of the acute condition (on the 8th day of hospitalization), SCV-07 was prescribed in an amount of 0.1 mg in 1.0 mL physiological saline once a day No. 5 daily [sic] intramuscular.
The patient took another examination under dynamic conditions (24 hours after the 5th intramuscular injection of SCV-07): Total blood analysis: erythrocytes—5.12·10^12/L, HB—159 g/L, leukocytes—9.7° 10^9/L, ESR—6 mm/h, b-, e—2%, rod nuclears—5%, segmented nuclears—67%, lymphocytes—20%, M—6%. Blood biochemistry: Sugar—5.7; Total bilirubin—8.9, ALT—0.12, AST—0.13, urea—5.12, creatinine—0.073 General sputum analysis—character—mucous, color gray, consistency viscous, flat epithelium 7-8, alveolar epithelium—none, leukocytes—1-2× in visual field. Hormonal status—cortisol—72.4 Evaluation of immune status

[3] = system: thymocyte and lymphocyte proliferation; settings: cited from earlier work
[4] = system: eosinophils and neutrophils in the lung tissue; assay: Lung tissue eosinophil peroxidase (EPO) and myeloperoxidase (MPO), guinea pig model; type: in vivo, Dunkin-Hartley guinea pigs
Experimental: Animals were sensitized on day 0 ip with 50 mg/kg OVA. On Days 17, 18, 19, and 20, animals received an ip injection between 8 and 10 am with PBS, SCV-07 at 1 ug/kg, or SCV-07 at 10 ug/kg (Peptide treatment). Between 8 and 10 a.m. on Day 21, animals were administered peptide 2 hours before OVA or saline (NSS) aerosol challenge. 30 min before OVA or NSS aerosol challenge each animal was injected ip with an antihistamine (6.1 mg/kg pyrilamine maleate) to prevent death due to the anaphylactic response that accompanies aerosol OVA challenge. Animals were exposed to aerosol in pairs with either 1% OVA solution or NSS for 5 min in a plexiglass chamber (22×22×29 cm) using a DeVilbiss Model 35B Ultrasonic Nebulizer. Animals were observed during the total 5 min aerosolization and comments recorded. Within 22-24 hours after challenge, animals were euthanized, bled by cardiac puncture, lavaged and lung lobes removed for measurement of cellular infiltration. At the time of OVA or NSS challenge and euthanasia, animal weights ranged from approximately 350-550 g, with the average weight approximately 420 g. This experimental protocol is similar to that used in previously published studies (Regal and Fraser, 1996; Regal et al., 2000). Animals were euthanized with pentobarbital (100-200 mg/kg), bled by cardiac puncture, and lavaged with room temperature PBS. For bronchoalveolar lavage (BAL), the trachea was cannulated and 4 volumes of PBS were introduced into the tracheal cannula and gently withdrawn. Total lavage volume was 60 ml/kg. The BAL was centrifuged to sediment the cells, and the BAL cell pellet re-suspended in 1.0 ml PBS for determination of the total number of white blood cells (WBC) recovered in the BAL of each animal. The BAL supernatant was frozen at −70 C for determination of total protein recovered in the BAL supernatant using the method of Lowry et al. (1951). Total white blood cells in BAL were counted by standard methods in a hemacytometer using Turk's solution. Differential counts were obtained from cytospin preparations of BAL cells (3×10^4 cells) stained with a modified Wrights' stain (Diff Quik, American Scientific Products, McGraw Park, Ill.). Four hundred cells were counted and identified as eosinophils, neutrophils, or mononuclear cells. […] EPO activity from the homogenized lung after lavage was expressed as total OD/min from the left caudal lobe. MPO activity from the homogenized lung after lavage was expressed as total units of enzyme activity from the right caudal lobe. […] OD412 of the BAL supernatant was also determined to estimate the number of RBCS that were lysed during the lavage procedure and prior to re-suspension of the cells for counting. […]

bone marrow cells = settings: cited from earlier work
[5] = 24 hours after the 5th injection
[6] = after 5 intramuscular injections of 0.1 mg

N[C@H](CCC(=O)N[C@@H](Cc1c[nH]c2ccccc12)C(=O)O)C(=O)O [SCV-07, γ-D-glutamyl-L-tryptophan]
Effect in a model of immunization with sheep red blood cells [1]: strong immunostimulatory effect
Non-toxic dose as multiple of the employed doses [2]: ≥ 100,000 times
Immune status: CD3+ (bronchial asthma; [5]): CD3^+- 52
Immune status: CD4+ (bronchial asthma; [5]): CD4^+- 36
Immune status: CD8+ (bronchial asthma; [5]): CD8^+- 15
Immune status: CD16+ (bronchial asthma; [5]): CD16^+- 7
Immune status: CD20+ (bronchial asthma; [5]): CD20^+-11
Immune status: CD25+ (bronchial asthma; [5]): CD25^+-1.3
Immune status: Ig A (bronchial asthma; [5]): Ig A - 1.11
Immune status: Ig G (bronchial asthma; [5]): Ig G - 11.5
Immune status: Ig M (bronchial asthma; [5]): Ig M - 0.9
Immune status: NST (bronchial asthma; [5]): NST - 100/163
Immune status: TSIK (bronchial asthma; [5]): TSIK - 77
Immune status: κ (NST ratio) (bronchial asthma; [5]): κ - 1.6
Immune status: Ig E (bronchial asthma; 24 hours after the 5th injection, 1130.6 on admission): Ig E - 672.1
Clinical dynamics of the disease (bronchial asthma; [6]): elimination of dyspnea attacks, cough, rhinitis
Patient well-being after the course (bronchial asthma; [6]): significant improvement of feeling well-being
Shortness of breath (respiratory rate) (bronchial asthma; after course, 24 per minute on admission): 16 per minute
Con-A-induced thymocyte and lymphocyte proliferation [3]: increases
Lung MPO in animals challenged with NSS aerosol ([4]; 1 ug/kg, p<0.05 vs PBS NSS control): significantly reduced
Change in lung EPO from NSS to OVA vs PBS treatment ([4]; 10 ug/kg, ANOVA contrast): greater
Lung EPO in animals challenged with NSS aerosol ([4]; 10 ug/kg, p<0.05 vs PBS NSS control): significantly reduced
Change in lung MPO from NSS to OVA ([4]; ANOVA contrast vs PBS treatment): did not differ
Expression of Thy-1.2 on bone marrow cells (bone marrow cells): stimulates expression
